Assay results taken from patent US10232043B2, “Photoactivated molecules for light-induced modulation of the activity of electrically excitable cells and methods of using the same” (UNIVERSITY OF SOUTHERN CALIFORNIA, priority 2015, dated 2019).
Entries after “also recorded” stand apart in the source; their conditions may differ.

Columns and labels:
[1] = tested on: mouse chromaffin cells; assay: Carbon-fiber amperometry, light-triggered secretion; type: cell-based
Procedure: Carbon fiber electrodes were prepared using established methodology and coupled to an EPC10 amplifier. A +800 mV constant voltage was applied to the electrode relative to the Ag/AgCl bath electrode. The amperometry recordings were sampled at 4 kHz using Pulsemaster (HEKA). Extracellular composition consisted of 120 mM NaCl, 20 mM KCl, 10 mM HEPES, 1 mM MgCl2, 2 mM CaCl2, 10 mM glucose, pH adjusted to 7.2-7.4, and osmolarity adjusted to 290-300. Light stimulation in the blue spectrum originated from a xenon lamp source through a 470/40 nm bandpass excitation filter. The duration of illumination varied and is indicated by bars on figures.
Action potential firing triggers secretion of norepinephrine and epinephrine from adrenal chromaffin cells, which can be readily detected by the technique of carbon-fiber amperometry, thus serving as a surrogate to detect action potential firing. […] Out of 18 RubpyC17-loaded cells tested, 15 cells (83%) experienced increased secretion by at least 100-fold during light illumination. Unlike the changes in light-induced depolarization, light-induced changes in secretion appeared to be more transient One possible explanation for this is that at any moment in time, there are only a small number of release-competent vesicles—the so-called readily releasable pool of vesicles and maintained stimulation causes rapid depletion of the readily releasable pool of vesicles in the initial phase of stimulation.

[2] = tested on: endogenous ion channels of chromaffin cells; assay: Voltage-clamp current-voltage relationship and steady-state activation; type: cell-based, mouse; settings: before and during light illumination
Source text: FIGS. 21A-21H depict data from various experiments related to characteristics of RubpyC17-loaded cells. […] Inset images shown to the right of trace confirmed proper integration of RubpyC17 in patched cells. FIGS. 21C-21E show the light-induced action potential firing in chromaffin cells was not due to biophysical changes in voltage-gated ion channels as there were no significant changes in current-voltage relationships (21C-21D) nor in steady-state activation curve (21E) in RubpyC17-loaded chromaffin cells before (open circle) or during (open circle) light illumination. […] Peak inward currents from each stimulation jump were plotted against corresponding stimulating voltages (n=6). […] Data from representative cell is shown (n=5). […] Currents resulting from capacitor-like behavior of chromaffin cell membranes during hyperpolarizing jumps to −85 mV from a resting membrane potential of −80 mV were recorded 5 min following giga-seal formation for amphoterecin B (bottom trace) or 10 min following giga-seal formation for RubpyC17 (top trace).
To examine whether light-activated RubpyC17 can directly interact and open or block endogenous ion channels, HEK293T cells were preincubated with RubpyC17, and patch-clamped in a voltage-clamp configuration. […]

[3] = tested on: leech ganglion neurons; assay: Leech ganglion neurons, light-induced action potential firing; type: cell-based, Hirudo verbana; settings: ex vivo leech ganglia
Procedure: Adult leeches Hirudo verbana will be obtained from Niagara Medical Leeches, Inc. (Westbury, N.Y., USA). Groups (20-30) of animals will be kept in glass aquaria with artificial pond water (36 mg/L Instant Ocean salts; Aquarium Systems, Mentor Ohio), in a temperature-controlled room at 16° C. and a 12:12 h light:dark cycle. At the time of experiments, leeches will weigh 1-3 g. Before dissection, the leech will be anesthetized in ice-cold leech saline. Leech saline has the following composition (in mM per liter): NaCl—115, KCl—4, CaCl2—1.8, MgCl2—2, HEPES—10, D-Glucose—5 (Sigma-Aldrich, USA). Individual ganglia will be dissected from the mid-body segments M6-M12, and pinned down in Sylgard-filled dissection box. Medial dorsal longitudinal incision will be made and the blood will be flushed away. Connective tissue and the blood vessel overlaying the ganglion chain will be incised. Dissected ganglia will be transferred to a Petri dish, pinned down in paraffin with six stainless steel pins (dorsal side up). PVNs will be microinjected into the extracellular space of the ganglion with a glass micropipette. Intracellular recording will be performed by penetrating the Retzius neurons with sharp glass electrodes (20-30 MOhm) filled with 3M potassium acetate. […] Neuronal firing will be recorded before and after the injections.

[4] = tested on: RCS rats; assay: Histology of the retina after injection; type: in vivo, rat; settings: 3 days after injection, preliminary
Source text: This finding was reproduced in 3 of 3 RCS rats injected with Rubpy-C17, and in 2 of 2 control (sham injection) RCS rats.

[5] = tested on: HEK293T cells; assay: Effect of PF6:Cl counter ion ratio of Rubpy-C17 on HEK293T cells; type: cell-based
Procedure: In some embodiments, the 20 mg of Rubpy-C17 is stored in −20° C. with desiccant in the dark. […] 253 μl of DMSO is then added into the original bottle containing Rubpy-C17 to make 100 mM stock solution. In some embodiments, the stock solution is aliquot and stored in −20° C. with desiccant in the dark.
In some examples, on the day before or on, the same day of the experiment, the following 2.5 mM external solution is prepared using the following steps. The external solution is warmed up to 37° C. For […] of the external solution, 0.176 grams of absorbic acid was added. Another 240 μL 5M NaOH was added to adjust the pH to between about 7.2-7.4. The absorbic solution can then be filtered through a 0.2 μm filter. The solution is then stored in the dark in 4° C. In some examples, the solution must be used within one week.
The 100 mM of Rubpy solution is first thawed from −20° C. 100 mM Rubpy is then diluted to 10 mM Rubpy: 2 μL 100 mM Rubpy+18 μL DMSO. In some examples, this is vortexted to mix and then centrifuged down with a small bench-top. The culture, medium is aspirated and the cells are rinsed with external solution several times. The external solution can then be aspirated. In some examples, enough of the external solution is left on the cells to prevent it from drying. 500 μL of external solution with 2.5 mM of ascorbic acid can then be added.
In some examples, 1 μL of 10 mM of Rubpy to […] of external solution with 2.5 mM ascorbic acid and mixed well. This should produce a final concentration of 10 μM of Rubpy with 0.1% DMSO. This mixed solution is then added to the above referenced cells and incubated for 10 minutes.
The solution can then be aspirated from the plate and rinsed with regular external solution several times. 2 mL of external solution is added to 2.5 mM ascorbic acid for recording. For each plate, a baseline control is taken by recording the first cell before performing any light-stimulating protocol. The light-stimulus can include 10-40 s in duration and bandpassed at 455-495 nm (blue light).
As discussed above, the mixture a 10 μM of RubpyC17 solution was placed in 10 HEK293T cells.

[6] = aqueous solution; cited from earlier work

SMILES: CCCCCCCCCCCCCCCCCc1ccnc(-c2cc(C)ccn2)c1.F[P-](F)(F)(F)(F)F.F[P-](F)(F)(F)(F)F.[Ru+2].c1ccc(-c2ccccn2)nc1.c1ccc(-c2ccccn2)nc1 [RubpyC17, [Ru(bpy)2(bpy-C17)](PF6)2]
- amperometric current spikes (vesicular secretion) under light ([1]; 2 μM RubpyC17, 488 nm): exhibited numerous amperometric current spikes
- cells with increased secretion during light illumination ([1]; 15 of 18 RubpyC17-loaded cells): 83%
- increase of secretion during light illumination ([1]; responding cells): at least 100 fold
- biophysical properties of endogenous ion channels [2]: does not alter the biophysical properties of endogenous ion channels
- light-induced action potential firing [3]: respond to illumination by firing action potentials; also recorded: light-induced increases in action potential firing
- retinal histology / pathology [4]: no evidence of retinal cell death or white blood cell infiltrates; also recorded: absence of obvious signs of deleterious effects
- fluorescence pattern ([5]; only PF6 counter ions): punctuate fluorescence
- Cell Death ([5]; only counter ion is chloride): cell death is observed
- electron transfer rate ket to oxidant ferricyanide [6]: ~6.5e+09 M⁻¹ s⁻¹
